Legend:
Experiment in all cases: relative viability (nuclei count vs DMSO), 5 days (fraction); higher = more cells survive
XMD13-2 + Foretinib = compound: C1CC1C(=O)NC2=NNC3=C2C=CC(=C3)C4=CC(=CC=C4)C(=O)NC5CC5 [XMD13-2] + COc1cc2c(Oc3ccc(NC(=O)C4(C(=O)Nc5ccc(F)cc5)CC4)cc3F)ccnc2cc1OCCCN1CCOCC1 [Foretinib] (partner 0.25 µM)
Summary of the method: (§1)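 Nuclei were stained with Hoechst during a one-step fixation (final 0.05% Triton X-100, 1% formaldehyde, 1 ug/ml Hoechst) carried out 5 days after dosing, then counted on 4× images. The cells, lung cancer lines in 1536-well plates, had been dosed by pin tool the day after seeding with one drug alone or a fixed anchor-drug dose plus five library-drug doses (not always all listed) in √10 steps. Relative viability is the nuclei count in treated wells divided by that in vehicle wells, and each value is the median of duplicate plates.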

XMD13-2 + Decitabine = compound: C1CC1C(=O)NC2=NNC3=C2C=CC(=C3)C4=CC(=CC=C4)C(=O)NC5CC5 [XMD13-2] + Nc1ncn([C@H]2C[C@H](O)[C@@H](CO)O2)c(=O)n1 [Decitabine] (partner 2 µM)
Summary of the method: as §1

ALW-II-49-7 + OSI-027 = compound: Cc1ccc(C(=O)Nc2cccc(C(F)(F)F)c2)cc1Nc1cncc(C(N)=O)c1 [ALW-II-49-7] + COc1cccc2cc(-c3nc([C@H]4CC[C@H](C(=O)O)CC4)n4ncnc(N)c34)[nH]c12 [OSI-027] (partner 0.5 µM)
Summary of the method: as §1

Dasatinib + Lapatinib = compound: Cc1nc(Nc2ncc(C(=O)Nc3c(C)cccc3Cl)s2)cc(N2CCN(CCO)CC2)n1 [Dasatinib] + CS(=O)(=O)CCNCc1ccc(-c2ccc3ncnc(Nc4ccc(OCc5cccc(F)c5)c(Cl)c4)c3c2)o1 [Lapatinib] (partner 2 µM)
Summary of the method: as §1

| Cell Line | relative viability (XMD13-2 + Foretinib; first compound 0.05 µM) | relative viability (XMD13-2 + Foretinib; first compound 0.1581 µM) | relative viability (XMD13-2 + Foretinib; first compound 0.5 µM) | relative viability (XMD13-2 + Foretinib; first compound 1.581 µM) | relative viability (XMD13-2 + Foretinib; first compound 5 µM) | relative viability (XMD13-2 + Decitabine; first compound 0.05 µM) | relative viability (XMD13-2 + Decitabine; first compound 0.1581 µM) | relative viability (XMD13-2 + Decitabine; first compound 0.5 µM) | relative viability (XMD13-2 + Decitabine; first compound 1.581 µM) | relative viability (XMD13-2 + Decitabine; first compound 5 µM) | relative viability (ALW-II-49-7 + OSI-027; first compound 0.08 µM) | relative viability (ALW-II-49-7 + OSI-027; first compound 0.253 µM) | relative viability (ALW-II-49-7 + OSI-027; first compound 0.8 µM) | relative viability (ALW-II-49-7 + OSI-027; first compound 2.53 µM) | relative viability (ALW-II-49-7 + OSI-027; first compound 8 µM) | relative viability (Dasatinib + Lapatinib; first compound 0.005 µM) | relative viability (Dasatinib + Lapatinib; first compound 0.01581 µM) | relative viability (Dasatinib + Lapatinib; first compound 0.05 µM) | relative viability (Dasatinib + Lapatinib; first compound 0.1581 µM) | relative viability (Dasatinib + Lapatinib; first compound 0.5 µM) |
| --- | --- | --- | --- | --- | --- | --- | --- | --- | --- | --- | --- | --- | --- | --- | --- | --- | --- | --- | --- | --- |
| NCI-H1975 | 1.06 | 0.939 | 0.96 | 0.978 | 0.982 | 0.373 | 0.381 | 0.412 | 0.414 | 0.333 | 0.555 | 0.785 | 0.72 | 0.553 | 0.486 | 0.779 | 0.701 | 0.595 | 0.419 | 0.23 |
| NCI-H522 | – | – | – | – | – | 0.615 | 0.654 | 0.633 | 0.546 | 0.721 | 0.795 | 0.753 | 0.634 | 0.718 | 0.749 | – | – | – | – | – |
| NCI-H441 | 1.1 | 0.902 | 0.956 | 1.06 | 0.661 | 0.23 | 0.248 | 0.237 | 0.231 | 0.242 | 0.657 | 0.57 | 0.867 | 0.48 | 0.466 | – | – | – | – | – |
| NCI-H1563 | 0.883 | 1.06 | 0.99 | 0.961 | 0.866 | – | – | – | – | – | 0.717 | 0.71 | 0.731 | 0.782 | 0.679 | 0.868 | 0.708 | 0.758 | 0.656 | 0.506 |
| NCI-H1703 | 0.303 | 0.411 | – | 0.336 | 0.393 | – | – | – | – | – | – | – | – | – | – | 0.638 | 0.326 | 0.429 | 0.185 | 0.16 |
| LCLC-103H | 0.759 | 0.726 | 0.735 | 0.61 | 0.575 | 0.712 | 0.748 | 0.765 | 0.719 | 0.756 | 0.43 | 0.462 | 0.474 | 0.463 | 0.377 | – | – | – | – | – |
| NCI-H1792 | – | – | – | – | – | 0.625 | 0.507 | 0.581 | 0.551 | 0.48 | 0.805 | 0.774 | 0.609 | 0.149 | 0.376 | 0.885 | 0.859 | 0.907 | 0.673 | 0.364 |
| NCI-H1648 | – | – | – | – | – | 0.507 | – | 0.515 | 0.475 | 0.579 | 0.254 | 0.264 | 0.264 | 0.255 | 0.215 | – | – | – | – | – |
| EBC-1 | 0.0838 | 0.0911 | 0.109 | 0.124 | 0.0963 | – | – | – | – | – | – | – | – | – | – | 0.248 | 0.217 | 0.236 | 0.233 | 0.252 |
| NCI-H1299 | 1.02 | 1.12 | 1.15 | 1.14 | 1.16 | – | – | – | – | – | – | – | – | – | – | 0.971 | 0.971 | 1.1 | 0.529 | 0.299 |
| A549 | 1.08 | 0.972 | 0.902 | 0.965 | 0.97 | 0.307 | 0.233 | 0.289 | 0.247 | 0.24 | – | – | – | – | – | 0.955 | 0.824 | 0.83 | 0.673 | 0.194 |
| IA-LM | 1.07 | 1.29 | 1.12 | 1.11 | 0.621 | – | – | – | – | – | – | – | – | – | – | 0.996 | 0.828 | 1.08 | 0.55 | 0.436 |

Source: the supplement of paper PMC10307832
